From patent publication US20250144067A1, “PERSONALIZED STARVATION THERAPY FOR CANCER” (Faeth Therapeutics, Inc., priority 2021, published 2025)
Counter-ions that a name gives are not always drawn. Like-named read-outs stand apart in the source and are kept apart here. Peptide text beside a SMILES is read from it.

Legend:
[1] = test system: NCI-H292 lung cancer cells; test: FDA drug screening, complete media vs cholesterol-free media with simvastatin (TABLE 2); format: cell-based, human
[2] = test system: NCI-H292 lung cancer cells; test: FDA drug screening, complete media vs cholesterol-free media without statin (TABLE 1); format: cell-based, human
[3] = NCI-H292 cells, drug in cholesterol-free media with simvastatin 0.04 μM
[4] = NCI-H292 cells, drug in complete media
[5] = complete media vs cholesterol-free media + simvastatin (0.04 μM), >0 enhanced anti-cancer activity, about 0 neutral, <0 antagonist
[6] = NCI-H292 cells, cholesterol-free media without statin, FDA drug library screen
[7] = NCI-H292 cells, complete media, FDA drug library screen
[8] = complete vs cholesterol-free media, >0 enhanced anti-cancer activity, about 0 neutral, <0 antagonist
[9] = NCI-H292 cells, cholesterol-free media with simvastatin 0.04 μM, FDA drug library screen (TABLE 2)
[10] = NCI-H292 cells, complete media, FDA drug library screen (TABLE 2)
[11] = complete media minus cholesterol-free media + simvastatin (0.04 μM), >0 enhanced anti-cancer activity, about 0 neutral, <0 antagonist
[12] = Complete minus Cholesterol-free, >0 enhanced anti-cancer activity, about 0 neutral, <0 antagonist
[13] = NCI-H292 cells, cholesterol-free media without statin
[14] = NCI-H292 cells, cholesterol-free media with simvastatin 0.04 μM, cell growth value in FDA drug screen
[15] = NCI-H292 cells, complete media, cell growth value in FDA drug screen
[16] = complete media minus cholesterol-free media + simvastatin, >0 enhanced anti-cancer activity, about 0 neutral, <0 antagonist
[17] = Complete minus Cholesterol-free, greater than 0 enhanced anti-cancer activity, about 0 neutral, below 0 antagonists
[18] = NCI-H292 cells in cholesterol-free media without statin
[19] = NCI-H292 cells in complete media
[20] = NCI-H292 cells, FDA drug library screen, cholesterol-free media with simvastatin 0.04 μM
[21] = NCI-H292 cells, FDA drug library screen, complete media
[22] = complete media vs cholesterol-free media + simvastatin (0.04 μM), […]
[23] = Complete minus Cholesterol-free, […]
[24] = complete vs cholesterol-free media, greater than 0 enhanced anti-cancer activity, about 0 neutral, below 0 antagonists
[25] = complete media minus cholesterol-free media + simvastatin (0.04 μM), […]
[26] = NCI-H292 cells, FDA drug library screen, cholesterol-free media without statin
[27] = NCI-H292 cells, FDA library drug in cholesterol-free media with simvastatin 0.04 μM
[28] = NCI-H292 cells, FDA library drug in complete media

NC(=O)OCC(COC(N)=O)c1ccccc1 [Felbamate]
Cholesterol-free media + simvastatin (0.04 μM) [1, 3]: 1.169
Complete Media [1, 4]: 0.9237
Difference [1, 5]: −0.25
Cholesterol-free [2, 6]: 0.9609
Complete [2, 7]: 1.103
Difference [2, 8]: 0.14

O=C(O)Cc1ccc(-c2ccccc2)cc1 [Felbinac]
Cholesterol-free media + simvastatin (0.04 μM) [1, 9]: 1.215
Complete Media [1, 10]: 1.199
Difference [1, 11]: −0.02
Cholesterol-free [2, 6]: 0.7335
Complete [2, 7]: 1.335
Difference [2, 8]: 0.60

CCOC(=O)C1=C(C)NC(C)=C(C(=O)OC)C1c1cccc(Cl)c1Cl (stereo not drawn) [Felodipine]
Cholesterol-free media + simvastatin (0.04 μM) [1, 3]: 1.148
Complete Media [1, 4]: 0.9051
Difference [1, 5]: −0.24
Difference [2, 12]: −0.19
Cholesterol-free [2, 13]: 1.202
Complete ([2]; NCI-H292 cells, complete media): 1.01

NCCCC[C@H](NC(=O)[C@@H]1CCCN1C(=O)[C@@H]1CSSC[C@H](N)C(=O)N[C@@H](Cc2ccccc2)C(=O)N[C@@H](Cc2ccccc2)C(=O)N[C@@H](CCC(N)=O)C(=O)N[C@@H](CC(N)=O)C(=O)N1)C(=O)NCC(N)=O [Felypressin] (HELM PEPTIDE1{C.F.F.Q.N.C.P.K.G.[am]}$PEPTIDE1,PEPTIDE1,1:R3-6:R3$$$V2.0)
Cholesterol-free media + simvastatin (0.04 μM) [1]: 1.091
Complete Media [1]: 0.9792
Difference [1]: −0.11
Cholesterol-free [2]: 0.991
Complete [2]: 0.8009
Difference [2]: −0.19

O=C(O)CCC(=O)c1ccc(-c2ccccc2)cc1 [Fenbufen]
Cholesterol-free media + simvastatin (0.04 μM) [1, 14]: 0.8759
Complete Media [1, 15]: 0.8928
Difference [1, 16]: 0.02
Difference [2, 17]: −0.96
Cholesterol-free [2, 18]: 1.772
Complete [2, 19]: 0.811

COP(=S)(OC)Oc1ccc([N+](=O)[O-])c(C)c1 [Fenitrothion]
Cholesterol-free media + simvastatin (0.04 μM) [1, 20]: 1.585
Complete Media [1, 21]: 1.426
Difference [1, 22]: −0.16
Difference [2, 23]: −0.22
Cholesterol-free [2, 13]: 0.8622
Complete ([2]; NCI-H292 cells, complete media): 0.6445

CC(C)OC(=O)C(C)(C)Oc1ccc(C(=O)c2ccc(Cl)cc2)cc1 [Fenofibrate]
Cholesterol-free media + simvastatin (0.04 μM) [1, 3]: 1.641
Complete Media [1, 4]: 1.401
Difference [1, 5]: −0.24
Difference [2, 12]: −0.06
Cholesterol-free [2, 6]: 0.8551
Complete [2, 7]: 0.7932

CC(C)(Oc1ccc(C(=O)c2ccc(Cl)cc2)cc1)C(=O)O [Fenofibric acid]
Cholesterol-free media + simvastatin (0.04 μM) [1, 14]: 0.9473
Complete Media [1, 15]: 1.061
Difference [1, 16]: 0.11
Cholesterol-free [2, 13]: 1.435
Complete ([2]; NCI-H292 cells, complete media): 1.058
Difference [2, 24]: −0.38

CC(C(=O)O)c1cccc(Oc2ccccc2)c1 (stereo not drawn) [Fenoprofen (Calcium hydrate)]
Cholesterol-free media + simvastatin (0.04 μM) [1, 3]: 1.224
Complete Media [1, 4]: 1.032
Difference [1, 5]: −0.19
Difference [2, 12]: −0.23
Cholesterol-free [2, 13]: 1.081
Complete ([2]; NCI-H292 cells, complete media): 0.8539

CC(Cc1ccc(O)cc1)NCC(O)c1cc(O)cc(O)c1 (stereo not drawn) [Fenoterol (hydrobromide)]
Cholesterol-free media + simvastatin (0.04 μM) [1, 9]: 0.9531
Complete Media [1, 10]: 0.9512
Difference [1, 25]: 0.00
Difference [2, 23]: −0.09
Cholesterol-free [2, 26]: 1.404
Complete [2, 21]: 1.311

O=C1NCC2(CCN(CCc3ccccc3)CC2)O1 [Fenspiride (Hydrochloride)]
Cholesterol-free media + simvastatin (0.04 μM) [1, 3]: 1.105
Complete Media [1, 4]: 0.9138
Difference [1, 5]: −0.19
Cholesterol-free [2, 6]: 0.597
Complete [2, 7]: 0.752
Difference [2, 8]: 0.15

CCNC(=O)[C@@H]1CCCN1C(=O)[C@H](CCCNC(=N)N)NC(=O)[C@H](CC(C)C)NC(=O)CNC(=O)[C@H](Cc1ccc(O)cc1)NC(=O)[C@H](CO)NC(=O)[C@H](Cc1c[nH]c2ccccc12)NC(=O)[C@H](Cc1c[nH]cn1)NC(=O)[C@@H]1CCC(=O)N1 [Fertirelin] (HELM PEPTIDE1{[Glp].H.W.S.Y.G.L.R.P.[CCN[*:1]]}$$$$V2.0)
Cholesterol-free media + simvastatin (0.04 μM) [1, 3]: 1.367
Complete Media [1, 4]: 1.138
Difference [1, 22]: −0.23
Difference [2, 23]: −0.12
Cholesterol-free [2, 26]: 0.9867
Complete [2, 21]: 0.8642

COc1cc(/C=C/C(=O)O)ccc1O.[Na] [Ferulic acid (sodium)]
Cholesterol-free media + simvastatin (0.04 μM) [1, 9]: 0.806
Complete Media [1, 10]: 0.766
Difference [1, 11]: −0.04
Cholesterol-free [2, 6]: 1.137
Complete [2, 7]: 1.309
Difference [2, 8]: 0.17

COc1cc(/C=C/C(=O)O)ccc1O [Ferulic acid]
Cholesterol-free media + simvastatin (0.04 μM) [1, 27]: 1.055
Complete Media [1, 28]: 0.7118
Difference [1, 5]: −0.34
Difference [2, 12]: −0.23
Cholesterol-free [2, 13]: 1.087
Complete ([2]; NCI-H292 cells, complete media): 0.8516

CC(C)C(=O)Oc1ccc(CO)cc1[C@H](CCN(C(C)C)C(C)C)c1ccccc1 [Fesoterodine (L-mandelate)]
Cholesterol-free media + simvastatin (0.04 μM) [1, 20]: 1.103
Complete Media [1, 21]: 0.9892
Difference [1, 5]: −0.11
Cholesterol-free [2, 6]: 0.7419
Complete [2, 7]: 1.264
Difference [2, 8]: 0.52

CC(C)C(=O)Oc1ccc(CO)cc1[C@H](CCN(C(C)C)C(C)C)c1ccccc1 [Fesoterodine]
Cholesterol-free media + simvastatin (0.04 μM) [1, 27]: 1.104
Complete Media [1, 28]: 0.8265
Difference [1, 5]: −0.28
Cholesterol-free [2, 6]: 0.8973
Complete [2, 7]: 1.535
Difference [2, 8]: 0.64

CC(C)(C(=O)O)c1ccc(C(O)CCCN2CCC(C(O)(c3ccccc3)c3ccccc3)CC2)cc1 (stereo not drawn) [Fexofenadine (hydrochloride)]
Cholesterol-free media + simvastatin (0.04 μM) [1, 27]: 1.402
Complete Media [1, 28]: 1.104
Difference [1, 5]: −0.30
Difference [2, 12]: −0.02
Cholesterol-free [2, 6]: 1.052
Complete [2, 7]: 1.034

NC(=O)[C@@H]1C[C@]2(NC(=O)NC2=O)c2cc(F)ccc2O1 [Fidarestat]
Cholesterol-free media + simvastatin (0.04 μM) [1]: 1.63
Complete Media [1]: 1.736
Difference [1]: 0.11
Cholesterol-free [2]: 1.491
Complete [2]: 0.686
Difference [2]: −0.80

CCc1c(Cl)c(O)c(Cl)c(O)c1C(=O)O[C@H]1[C@H](O)[C@H](OC)[C@H](OC/C2=C\C=C\C[C@H](O)/C(C)=C/[C@H](CC)[C@@H](O[C@@H]3OC(C)(C)[C@@H](OC(=O)C(C)C)[C@H](O)[C@@H]3O)/C(C)=C/C(C)=C/C[C@@H]([C@@H](C)O)OC2=O)O[C@@H]1C [Fidaxomicin]
Cholesterol-free media + simvastatin (0.04 μM) [1, 27]: 1.494
Complete Media [1, 28]: 1.227
Difference [1, 5]: −0.27
Difference [2, 17]: −0.71
Cholesterol-free [2, 18]: 1.405
Complete [2, 19]: 0.6951

CCCCc1nc(C)c(CC(=S)N(C)C)c(=O)n1Cc1ccc(-c2ccccc2-c2nnn[nH]2)cc1 [Fimasartan]
Cholesterol-free media + simvastatin (0.04 μM) [1, 9]: 1.27
Complete Media [1, 10]: 1.222
Difference [1, 11]: −0.05
Difference ([2]; Complete minus Cholesterol-free, greater than 0 enhanced anti-cancer activity, about 0 neutral, below 0 antagonist): −0.08
Cholesterol-free [2, 26]: 1.327
Complete [2, 21]: 1.249

N#Cc1c(N2C[C@@H]3NCCO[C@H]3C2)c(F)cc2c(=O)c(C(=O)O)cn(C3CC3)c12 [Finafloxacin]
Cholesterol-free media + simvastatin (0.04 μM) [1, 3]: 1.227
Complete Media [1, 4]: 0.9973
Difference [1, 22]: −0.23
Difference [2, 23]: −0.22
Cholesterol-free [2, 13]: 1.006
Complete ([2]; NCI-H292 cells, complete media): 0.7899

CC(C)(C)NC(=O)[C@H]1CC[C@H]2[C@@H]3CC[C@H]4NC(=O)C=C[C@]4(C)[C@H]3CC[C@]12C [Finasteride]
Cholesterol-free media + simvastatin (0.04 μM) [1, 14]: 1.571
Complete Media [1, 15]: 1.636
Difference [1, 16]: 0.06
Cholesterol-free [2, 13]: 1.209
Complete ([2]; NCI-H292 cells, complete media): 0.7878
Difference [2, 24]: −0.42

CCCCCCCCc1ccc(CCC(N)(CO)CO)cc1 [Fingolimod (hydrochloride)]
Cholesterol-free media + simvastatin (0.04 μM) [1, 14]: 0.9867
Complete Media [1, 15]: 1.023
Difference [1, 16]: 0.04
Cholesterol-free [2, 13]: 1.335
Complete ([2]; NCI-H292 cells, complete media): 0.8744
Difference [2, 24]: −0.46

CCCCCCCCc1ccc(CCC(N)(CO)CO)cc1 [Fingolimod]
Cholesterol-free media + simvastatin (0.04 μM) [1, 20]: 1.233
Complete Media [1, 21]: 1.097
Difference [1, 5]: −0.14
Difference [2, 17]: −0.48
Cholesterol-free [2, 18]: 1.481
Complete [2, 19]: 0.9982

O=C(COc1ccc(Cl)cc1)N1CCN(Cc2ccc3c(c2)OCO3)CC1 [Fipexide]
Cholesterol-free media + simvastatin (0.04 μM) [1, 27]: 1.655
Complete Media [1, 28]: 1.225
Difference [1, 5]: −0.43
Difference [2, 12]: −0.02
Cholesterol-free [2, 6]: 1.201
Complete [2, 7]: 1.177

N#Cc1nn(-c2c(Cl)cc(C(F)(F)F)cc2Cl)c(N)c1[S+]([O-])C(F)(F)F (stereo not drawn) [Fipronil]
Cholesterol-free media + simvastatin (0.04 μM) [1, 9]: 1.235
Complete Media [1, 10]: 1.184
Difference [1, 25]: −0.05
Difference [2, 23]: −0.22
Cholesterol-free [2, 13]: 1.217
Complete ([2]; NCI-H292 cells, complete media): 1
